Measured values as given in ChEMBL document CHEMBL4342406, “Revealing quinquennial anticancer journey of morpholine: A SAR based review” (Eur J Med Chem, 2019).

Legend:
Lymphocyte = test: Cytotoxicity against human lymphocytes assessed as reduction in cell viability after 72 hrs by MTT assay; assay type: cell-based
HT-29 = test: Cytotoxicity against human HT-29 cells assessed as reduction in cell viability after 72 hrs by MTT assay; assay type: functional, cell-based; details: HT-29, 72 h
A549 [1] = test: Cytotoxicity against human A549 cells assessed as reduction in cell viability after 72 hrs by MTT assay; assay type: functional, cell-based; details: A549, 72 h
MCF7 [2] = test: Antiproliferative activity in human MCF7 cells by MTT assay; assay type: functional, cell-based
A549 [3] = test: Antiproliferative activity in human A549 cells by MTT assay; assay type: functional, cell-based
BEL-7404 tumor cell line = test: Antiproliferative activity in human Bel7404 cells by MTT assay; assay type: functional, cell-based
Bel-7402 = test: Antiproliferative activity in human Bel7402 cells after 72 hrs by MTS assay; assay type: functional, cell-based; details: Bel-7402, 72 h
SMMC-7721 = test: Antiproliferative activity in human SMMC7721 cells after 72 hrs by MTS assay; assay type: functional, cell-based; details: SMMC-7721, 72 h
QGY-7703 = test: Antiproliferative activity in human QGY7703 cells after 72 hrs by MTS assay; assay type: functional, cell-based; details: QGY-7703, 72 h
[4] = target: Epidermal growth factor receptor (Homo sapiens, UniProt P00533, T790M); test: Inhibition of EGFR T790M mutant (unknown origin) incubated for 60 mins by ADP-Glo kinase assay
Sequence of Epidermal growth factor receptor (P00533 25-1210 T790M limits assumed): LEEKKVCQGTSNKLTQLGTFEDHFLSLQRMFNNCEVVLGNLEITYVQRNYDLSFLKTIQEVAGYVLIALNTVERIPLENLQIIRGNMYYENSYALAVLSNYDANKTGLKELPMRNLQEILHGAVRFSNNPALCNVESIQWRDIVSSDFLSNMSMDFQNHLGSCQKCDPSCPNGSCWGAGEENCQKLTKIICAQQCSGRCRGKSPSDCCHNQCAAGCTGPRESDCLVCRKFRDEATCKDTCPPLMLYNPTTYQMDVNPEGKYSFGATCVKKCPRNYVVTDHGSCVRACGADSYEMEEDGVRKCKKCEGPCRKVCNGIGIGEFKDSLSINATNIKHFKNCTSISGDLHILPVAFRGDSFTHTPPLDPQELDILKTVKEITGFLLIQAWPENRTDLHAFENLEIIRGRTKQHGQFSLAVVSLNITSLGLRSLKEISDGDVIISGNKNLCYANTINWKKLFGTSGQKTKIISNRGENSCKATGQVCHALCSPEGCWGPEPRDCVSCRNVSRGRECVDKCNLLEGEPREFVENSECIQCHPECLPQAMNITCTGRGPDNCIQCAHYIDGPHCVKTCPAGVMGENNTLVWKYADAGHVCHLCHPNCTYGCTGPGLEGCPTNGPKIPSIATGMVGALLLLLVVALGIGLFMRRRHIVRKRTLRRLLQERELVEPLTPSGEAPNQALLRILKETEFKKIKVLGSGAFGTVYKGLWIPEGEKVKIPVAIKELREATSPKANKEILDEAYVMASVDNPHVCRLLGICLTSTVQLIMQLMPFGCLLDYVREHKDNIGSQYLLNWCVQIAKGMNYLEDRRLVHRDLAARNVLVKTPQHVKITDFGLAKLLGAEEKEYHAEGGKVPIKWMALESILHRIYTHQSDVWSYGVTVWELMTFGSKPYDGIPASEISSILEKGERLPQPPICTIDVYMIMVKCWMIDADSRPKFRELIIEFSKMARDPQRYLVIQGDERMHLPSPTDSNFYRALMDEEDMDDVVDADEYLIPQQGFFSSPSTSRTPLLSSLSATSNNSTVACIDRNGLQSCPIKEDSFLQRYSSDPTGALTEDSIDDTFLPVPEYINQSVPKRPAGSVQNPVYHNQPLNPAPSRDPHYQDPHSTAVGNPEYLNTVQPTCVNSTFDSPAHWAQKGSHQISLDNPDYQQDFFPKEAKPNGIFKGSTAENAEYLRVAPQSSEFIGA

MCF7 [5] = test: Cytotoxicity against human MCF7 cells assessed as reduction in cell viability incubated for 3 days by MTT assay; assay type: functional, cell-based; details: MCF7, 72 h

For `COc1ccc(Cn2cnc3c(cc(N4CCOCC4)c4ccccc43)c2=O)cc1`, the IC50 (Lymphocyte) was 175 µM, the IC50 (HT-29) was 4.12 µM and the IC50 (A549 [1]) was 134 µM.

`CCCCCCCCCC[C@H](O)COCCOC[C@@H](O)CCCCCCCCCCCCCCN1CCOCC1` showed an IC50 (MCF7 [2]) of 13 µM, an IC50 (A549 [3]) of 11.7 µM and an IC50 (BEL-7404 tumor cell line) of 25.8 µM.

Work on `O=c1ccc(-c2cc(C(F)(F)F)c(N3CCOCC3)nn2)n[nH]1` yielded an IC50 (Bel-7402) of 0.285 µM, an IC50 (SMMC-7721) of 0.123 µM and an IC50 (QGY-7703) of 0.178 µM.

In the case of `C=CC(=O)Nc1cccc(Nc2ncnc3cc(OC)c(OCCN4CCOCC4)cc23)c1`, the IC50 [4] is reported as 0.0043 µM.

In the case of `COc1c2ccoc2c(S(=O)(=O)N2CCOCC2)c2oc(C)c(C(C)=O)c(=O)c12`, the IC50 (MCF7 [5]) is reported as 0.125 µM.
